{
  "source": "patent US7015313B2",
  "about": "“Lectin protein prepared from Korean marine crab Philyra pisum, process for preparing the same and the use thereof” (priority 2001, dated 2006)",
  "key": {"lectin PPA": {"test_system": "lectin PPA", "assay": "Hemagglutination-inhibition assay of the lectin PPA with monosaccharide, disaccharide and glycoprotein", "format": "binding, Philyra pisum", "settings": "for Erythrocyte agglutination inhibition concentration: 6.25% mouse erythrocyte, lectin PPA diluted 128-fold; for inhibition of agglutination (in words): summary of Table 2", "description": "In order to confirm that the lectin PPA of the present invention recognizes N-glycolylneuraminic acid, hemagglutination-inhibition reaction was performed using monosaccharide, disaccharide and glycoprotein. 50 Microliters of a 128-fold diluted solution of lectin PPA in 0.15 molar NaCl and 50 microliters of each of 1 milligram per milliliter solutions of monosaccharides (e.g., β-D-glucose, D-galactose, L-fucose, D-mannose, N-acetylneuraminic acid, N-glycolylneuraminic acid, N-acetyl-D-glucosamine, N-acetyl-D-galactosamine and methyl-α-D-glucopoyranoside), disaccharide (e.g., α-lactose, β-lactose, D-lactose, βgentiobiose, maltose, D-raffinose or D-cellobiose) and glycoprotein (e.g., bovine submaxillary mucin, thyroglobulin, fetuin and asialofetuin) in 0. 15 molar NaCl were added to the each well of a 96-well microplate. After the reaction for one hour or more at room temperature, 50 microliters of the erythrocyte suspended in 0.15 molar NaCl was added to each well and reacted for one hour at room temperature.\nThe negative sign (−) means that there is no hemagglutination-inhibition for 100 millimolar monosaccharide/disaccharide and 100 micromolar glucoprotein. NeuGc and NeuAc represent N-glycolylneuraminic acid and N-acetylneuraminic acid, respectively."}, "[1]": {"test_system": "peroxidase-labeled lectin PPA", "assay": "ELISA with peroxidase-labeled lectin PPA on coated glycoproteins", "format": "binding, Philyra pisum", "settings": "1 milligram per milliliter glycoprotein solution diluted 10^3 to 10^8-fold, FIG. 3", "description": "In order to more accurately verify the hemagglutination-inhibition reaction of the lectin PPA, ELISA was conducted. Specifically, the lectin PPA bound to a horse radish peroxidase (HRP) was used in examining the reactivity and sensitivity against glucoproteins by ELISA. First, 5.03 milligrams of HRP were dissolved in 0.2 milliliter of a 1.25% glutaraldehyde (EM grade)-100 millimolar sodium phosphate buffer (pH 6.8) and allowed to stand for 18 hours at room temperature. Then, 20 microliters of glycerol and 20 microliters of xylene cyanol were added thereto and this was used in performing gel filtration with a SEPHADEX (TM) G-75 column equilibrated with a 100 millimolar phosphate buffer and 0.15 molar NaCl (pH 7.2). After applying the glutaraldehyde-treated HRP onto the column and eluting with 0.15 molar NaCl, about 1 milliliter of the brownish fraction containing HRP solution was collected. This fraction was dialyzed with a 100 millimolar sodium carbonate-sodium bicarbonate buffer solution (pH 9.5) containing sucrose and followed by the same buffer without sucrose. To 300 microliters of HRP thus obtained were added 150 microliters of lectin PPA (concentration of about 0.4 milligram per milliliter concentration) containing with 0.15 molar NaCl. After confirming the pH value 9.0 or more, the resultant solution was incubated for 24 hours at 4° C. to prepare peroxidase-labeled lectin PPA. In the mean time, 1 milligram of each of fetuin, asialofetuin and bovine submaxillary mucin was dissolved in 1 milliliter of PBS and serial 10-fold dilutions were made. […] Then, the absorbance at 415 nanometers of each well was measured with a microplate reader. To eliminate the error of each well caused by the time difference while adding ABTS, a second measurement was performed after 10 minutes to determine the difference in the absorbances between the time of 10 minutes and 0 minute. […] The absorbance was decreased with the lowering of the concentration."}, "[2]": {"settings": "monosaccharide/disaccharide tested from 100 mM"}, "[3]": {"settings": "glycoprotein tested from 100 micromolar"}, "[4]": {"settings": "glycoprotein, minimum concentration"}},
  "data": [
    {"compound": "OC[C@H]1O[C@@H](O[C@H]2[C@H](O)[C@@H](O)[C@H](O)O[C@@H]2CO)[C@H](O)[C@@H](O)[C@@H]1O", "note": "[D-cellobiose]", "values": [
      {"measurement": "Erythrocyte agglutination inhibition concentration", "setting": "lectin PPA; [2]", "value": "— (The negative sign (−) means that there is no hemagglutination-inhibition for 100 millimolar monosaccharide/disaccharide)"}
    ]},
    {"compound": "O=C[C@H](O)[C@@H](O)[C@@H](O)[C@H](O)CO", "note": "[D-galactose]", "values": [
      {"measurement": "Erythrocyte agglutination inhibition concentration", "setting": "lectin PPA; [2]", "value": "— (The negative sign (−) means that there is no hemagglutination-inhibition for 100 millimolar monosaccharide/disaccharide)"}
    ]},
    {"compound": "OC[C@H]1O[C@@H](O[C@H]2[C@H](O)[C@@H](O)C(O)O[C@@H]2CO)[C@H](O)[C@@H](O)[C@H]1O", "note": "(stereo partly drawn) [D-lactose]", "values": [
      {"measurement": "Erythrocyte agglutination inhibition concentration", "setting": "lectin PPA; [2]", "value": "— (The negative sign (−) means that there is no hemagglutination-inhibition for 100 millimolar monosaccharide/disaccharide)"}
    ]},
    {"compound": "O=C[C@@H](O)[C@@H](O)[C@H](O)[C@H](O)CO", "note": "[D-mannose]", "values": [
      {"measurement": "Erythrocyte agglutination inhibition concentration", "setting": "lectin PPA; [2]", "value": "— (The negative sign (−) means that there is no hemagglutination-inhibition for 100 millimolar monosaccharide/disaccharide)"}
    ]},
    {"compound": "OC[C@H]1O[C@H](OC[C@H]2O[C@H](O[C@]3(CO)O[C@H](CO)[C@@H](O)[C@@H]3O)[C@H](O)[C@@H](O)[C@@H]2O)[C@H](O)[C@@H](O)[C@H]1O", "note": "[D-raffinose]", "values": [
      {"measurement": "Erythrocyte agglutination inhibition concentration", "setting": "lectin PPA; [2]", "value": "— (The negative sign (−) means that there is no hemagglutination-inhibition for 100 millimolar monosaccharide/disaccharide)"}
    ]},
    {"compound": "C[C@H](O)[C@@H](O)[C@@H](O)[C@H](O)C=O", "note": "[L-fucose]", "values": [
      {"measurement": "Erythrocyte agglutination inhibition concentration", "setting": "lectin PPA; [2]", "value": "— (The negative sign (−) means that there is no hemagglutination-inhibition for 100 millimolar monosaccharide/disaccharide)"}
    ]},
    {"compound": "OC[C@H]1O[C@H](O[C@H]2[C@H](O)[C@@H](O)[C@H](O)O[C@@H]2CO)[C@H](O)[C@@H](O)[C@@H]1O", "note": "[Maltose]", "values": [
      {"measurement": "Erythrocyte agglutination inhibition concentration", "setting": "lectin PPA; [2]", "value": "— (The negative sign (−) means that there is no hemagglutination-inhibition for 100 millimolar monosaccharide/disaccharide)"}
    ]},
    {"compound": "CO[C@H]1O[C@H](CO)[C@@H](O)[C@H](O)[C@H]1O", "note": "[Methyl-α-D-glucopyranoside]", "values": [
      {"measurement": "Erythrocyte agglutination inhibition concentration", "setting": "lectin PPA; [2]", "value": "— (The negative sign (−) means that there is no hemagglutination-inhibition for 100 millimolar monosaccharide/disaccharide)"}
    ]},
    {"compound": "CC(=O)N[C@H]1C(O)O[C@H](CO)[C@H](O)[C@@H]1O", "note": "(stereo partly drawn) [N-acetyl-D-galactosamine]", "values": [
      {"measurement": "Erythrocyte agglutination inhibition concentration", "setting": "lectin PPA; [2]", "value": "— (The negative sign (−) means that there is no hemagglutination-inhibition for 100 millimolar monosaccharide/disaccharide)"}
    ]},
    {"compound": "CC(=O)N[C@H]1C(O)O[C@H](CO)[C@@H](O)[C@@H]1O", "note": "(stereo partly drawn) [N-acetyl-D-glucosamine]", "values": [
      {"measurement": "Erythrocyte agglutination inhibition concentration", "setting": "lectin PPA; [2]", "value": "— (The negative sign (−) means that there is no hemagglutination-inhibition for 100 millimolar monosaccharide/disaccharide)"}
    ]},
    {"compound": "CC(=O)N[C@H]1[C@H]([C@H](O)[C@H](O)CO)OC(O)(C(=O)O)C[C@@H]1O", "note": "(some centres unmarked) [N-acetylneuraminic acid]", "values": [
      {"measurement": "Erythrocyte agglutination inhibition concentration", "setting": "lectin PPA; [2]", "value": "— (The negative sign (−) means that there is no hemagglutination-inhibition for 100 millimolar monosaccharide/disaccharide)"}
    ]},
    {"compound": "O=C(CO)N[C@H]1[C@H]([C@H](O)[C@H](O)CO)OC(O)(C(=O)O)C[C@@H]1O", "note": "(some centres unmarked) [N-glycolylneuraminic acid]", "values": [
      {"measurement": "Erythrocyte agglutination inhibition concentration", "setting": "lectin PPA; monosaccharide/disaccharide, minimum concentration", "value": 190, "unit": "µM"},
      {"measurement": "inhibition of agglutination (in words)", "setting": "lectin PPA", "value": "inhibited the agglutination"}
    ]},
    {"compound": "OC[C@H]1O[C@@H](O)[C@H](O)[C@@H](O)[C@@H]1O", "note": "[beta.-D-glucose]", "values": [
      {"measurement": "Erythrocyte agglutination inhibition concentration", "setting": "lectin PPA; [2]", "value": "— (The negative sign (−) means that there is no hemagglutination-inhibition for 100 millimolar monosaccharide/disaccharide)"}
    ]},
    {"compound": "OC[C@H]1O[C@@H](O[C@H]2[C@H](O)[C@@H](O)[C@@H](O)O[C@@H]2CO)[C@H](O)[C@@H](O)[C@H]1O", "note": "[α-lactose]", "values": [
      {"measurement": "Erythrocyte agglutination inhibition concentration", "setting": "lectin PPA; [2]", "value": "— (The negative sign (−) means that there is no hemagglutination-inhibition for 100 millimolar monosaccharide/disaccharide)"}
    ]},
    {"compound": "OC[C@H]1O[C@@H](OC[C@H]2O[C@@H](O)[C@H](O)[C@@H](O)[C@@H]2O)[C@H](O)[C@@H](O)[C@@H]1O", "note": "[β-gentiobiose]", "values": [
      {"measurement": "Erythrocyte agglutination inhibition concentration", "setting": "lectin PPA; [2]", "value": "— (The negative sign (−) means that there is no hemagglutination-inhibition for 100 millimolar monosaccharide/disaccharide)"}
    ]},
    {"compound": "OC[C@H]1O[C@@H](O[C@H]2[C@H](O)[C@@H](O)[C@H](O)O[C@@H]2CO)[C@H](O)[C@@H](O)[C@H]1O", "note": "[β-lactose]", "values": [
      {"measurement": "Erythrocyte agglutination inhibition concentration", "setting": "lectin PPA; [2]", "value": "— (The negative sign (−) means that there is no hemagglutination-inhibition for 100 millimolar monosaccharide/disaccharide)"}
    ]},
    {"compound": "Asialofetuin: glycoprotein without sialic acid, does not contain N-glycolylneuraminic acid", "values": [
      {"measurement": "Erythrocyte agglutination inhibition concentration", "setting": "lectin PPA; [3]", "value": "— (The negative sign (−) means that there is no hemagglutination-inhibition for 100 millimolar monosaccharide/disaccharide and 100 micromolar glucoprotein)"},
      {"measurement": "ELISA response (absorbance at 415 nanometers)", "setting": "[1]", "value": "no response occurred"}
    ]},
    {"compound": "Bovine submaxillary mucin", "values": [
      {"measurement": "Erythrocyte agglutination inhibition concentration", "setting": "lectin PPA; [4]", "value": 1.3, "unit": "µM"},
      {"measurement": "inhibition of agglutination (in words)", "setting": "lectin PPA", "value": "inhibited the agglutination"},
      {"measurement": "ELISA response (absorbance at 415 nanometers)", "setting": "[1]", "value": "a response in which absorbance value is increased was observed"}
    ]},
    {"compound": "Fetuin: glycoprotein with NeuAc, does not contain N-glycolylneuraminic acid", "values": [
      {"measurement": "Erythrocyte agglutination inhibition concentration", "setting": "lectin PPA; [3]", "value": "— (The negative sign (−) means that there is no hemagglutination-inhibition for 100 millimolar monosaccharide/disaccharide and 100 micromolar glucoprotein)"},
      {"measurement": "ELISA response (absorbance at 415 nanometers)", "setting": "[1]", "value": "no response occurred"}
    ]},
    {"compound": "Thyroglobulin: glycoprotein containing N-glycolylneuraminic acid", "values": [
      {"measurement": "Erythrocyte agglutination inhibition concentration", "setting": "lectin PPA; [4]", "value": 0.4, "unit": "µM"},
      {"measurement": "inhibition of agglutination (in words)", "setting": "lectin PPA", "value": "inhibited the agglutination"}
    ]}
  ]
}
